Reference: patent US9408924B2, “Bioconjugates of cyanine dyes” (LI-COR, INC., priority 2010, dated 2016)

How the values were obtained:
[1] = Absorption and emission of the dye; assay type: physicochemical
Description: Compound 9 (80 mg), 3-(2-carboxyethyl)phenylboronic acid (40 mg), and cesium carbonate (20 mg) were stirred into water (20 mL) under nitrogen at room temperature. Tetrakis(triphenylphosphine)palladium (0) (10 mg) were added to the reaction mixture. The mixture was refluxed for 4 h, and the solvent and volatile compounds then were evaporated under vacuum. The crude product was purified by flash chromatography on silica 60, 200-400 mesh, eluting with a 20/80 acetonitrile/water mixture. The purified compound 56 had λMeOH=680 nm, λPBS=672 nm, ε=160,000.
Fluorescence determinations were made at a fixed antibody concentration of 10 μg/mL in physiological buffer using dye-labeled goat anti-rabbit (GAR) conjugates prepared at LI-COR (FIGS. 13A-B and 14). A dye-labeled lactalbumin conjugate was also tested (FIG. 15).
20's absorbance and emission maximum is at 676 nm in aqueous solution and at 693 nm in methanol.

U87GM cells = assay: Plate-based evaluation of cell binding (on-cell Western); conditions: <0.5 μM; in comparison to a specific targeted probe
Description: Compound 10/RGD and 10/EGF were prepared to be used in conjunction with 10 to estimate relative non-specific binding of the dye relative to a labeled targeted agent. The on-cell Western was the format used and imaged on the Odyssey Sa.
In a plate-based evaluation of 10/RGD on U87GM cells, 10 was added to assess level of cell binding (FIG. 27).

[2] = In vivo clearance study of carboxylate 10; parameters: species or system Nude mice
Description: Nude mice were used for the clearance study with the carboxylate and for the targeted agent evaluation. A dose of 2 nmol 10 was administered intravenously (IV) via the tail vein of the mouse and serial imaged over the next 48 h with the Pearl Impulse imaging system. Excised organs were evaluated to assess organs with the highest retention.

A431 subcutaneous tumors = assay: In vivo dose testing of 10/EGF; parameters: species or system nude mice; conditions: excised organs 48 h post injection
Description: Testing for optimal dose in nude mice bearing A431 subcutaneous tumors was done. Four doses were tested: 0.5, 1, 2, and 3 nmoles. Two mice were used per treatment dosage. A431 tumor cells were implanted on the right hip and allowed to reach approximately 0.5 cm. FIG. 31 presents dorsal views of all animals under a common LUT.

[3] = test system: U87 tumor cells (integrins); assay: In vivo optical imaging with 10-labeled cyclo(RGDfK) probe; parameters: species or system Mice
Description: The suitability of compound 10 for in vivo optical imaging was evaluated using an 10-labeled cyclo(Arg-Gly-Asp-D-Phe-Lys) (RGDfK) probe. This probe was specifically designed to target integrins. Integrins are cell surface heterodimeric glycoproteins important in cell adhesion and signal transduction. This receptor class is involved in tumor growth, tumor invasiveness, metastasis, tumor-induced angiogenesis, inflammation, osteoporosis, and rheumatoid arthritis.
Mice were implanted with U87 tumor cells. The animals were injected and imaged while the tumors were still extremely small. This provided a good test of how visible the tumors are over any background signal that the probe detected.
Tumors were excised, weighed, and imaged on a Pearl Imager (FIG. 3).

[4] = Photostability comparison on nitrocellulose membrane; assay type: physicochemical; conditions: dye-labeled GAR on nitrocellulose; repeated Odyssey scans; normalized to time zero
Description: Test samples were prepared by spotting equimolar amounts of dye (i.e., goat anti-rabbit (GAR) secondary antibodies labeled with the appropriate dye) onto nitrocellulose membrane. The membrane was then scanned repeatedly on an Odyssey Infrared Imager, and the signal intensity was normalized to the control signal at time zero (FIG. 19A-B).

For `CC1(C)C(/C=C/C(=C/C=C2/N(CCCS(=O)(=O)[O-])c3ccc(S(=O)(=O)[O-])cc3C2(C)C)c2cccc(CCC(=O)O)c2)=Nc2c1cc(Cl)c[n+]2CCCS(=O)(=O)[O-].[Na+].[Na+]` [Compound 10], the “Extinction Coefficient” value ([1]; MeOH) was 170,000, the “Max. Abs.” value ([1]; MeOH) was 680 nm and the “Max. Emis.” value ([1]; MeOH) was 694 nm. The “Extinction Coefficient” value ([1]; PBS) was 160,000, the “Max. Abs.” value ([1]; PBS) was 672 nm and the “Max. Emis.” value ([1]; PBS) was 694 nm. The “level of cell binding” value (U87GM cells) was “low levels of cell binding”, the “time of signal spike” value ([2]; 2 nmol IV) was “about 1 hour” and the “retention in the kidneys” value ([2]; 2 nmol IV, 44 hr period) was “very little retention in the kidneys, if at all”. For the same molecule, the route of clearance ([2]; 2 nmol IV, 44 hr period) was “clears via the liver/gall bladder/intestinal tract”, the “time by which total signal is dramatically reduced” value ([2]; 2 nmol IV, whole-image ROI) was at most 4 h and the “retention in excised organs” value ([2]; 44 hr post injection, liver, heart, kidney, spleen, intestine, muscle, tumor) was “very little retention of probe”. For the same molecule, the “signal from the tumor cells” value (A431 subcutaneous tumors) was “very little signal from the tumor cells”.
With `CC1(C)C(/C=C/C(=C/C=C2\N(CCCS(=O)(=O)[O-])c3ccc(S(=O)(=O)[O-])cc3C2(C)C)c2cccc(CCC(=O)NCCCC[C@@H]3NC(=O)[C@@H](Cc4ccccc4)NC(=O)[C@H](CC(=O)[O-])NC(=O)CNC(=O)[C@H](CCCNC(=N)N)NC3=O)c2)=Nc2c1cc(Cl)c[n+]2CCCS(=O)(=O)[O-].[Na+].[Na+].[Na+]` [Compound 21, Sodium 2-((2S,5R,8S,11S)-5-benzyl-8-(4-(3-(3-((1E,3Z,5Z)-1-(5-chloro-3,3-dimethyl-7-(3-sulfonatopropyl)-3H-pyrrolo[2,3-b]pyridin-7-ium-2-yl)-5-(3,3-dimethyl-5-sulfonato-1-(3-sulfonatopropyl)indolin-2-ylidene)penta-1,3-dien-3-yl)phenyl)propanamido)butyl)-11-(3-guanidinopropyl)-3,6,9,12,15-pentaoxo-1,4,7,10,13-pentaazacyclopentadecan-2-yl)acetate] the clearance and background ([3]; 1 nmol) was “cleared the system without an undue level of background”, the “time post-injection by which tumors were visible” value ([3]; 1 nmol intravenously, two tumor-bearing mice) was at most 5 h and the detectability of tumors ([3]; 1 nmol, extremely small tumors (9 and 15 mg)) was “easily detectable”.
In the case of `C[Si](C)(CCC[N+](CCCS(=O)(=O)[O-])(CCCS(=O)(=O)[O-])CCCS(=O)(=O)[O-])O[Si]1(O[Si](C)(C)CCC[N+](CCCS(=O)(=O)[O-])(CCCS(=O)(=O)[O-])CCCS(=O)(=O)[O-])n2c3c4ccccc4c2N=C2N=C(N=c4c5ccccc5c(n41)=NC1=NC(=N3)c3ccccc31)c1cccc(OCCCOC(=O)NCCCCCC(=O)ON3C(=O)CCC3=O)c12.[Na+].[Na+].[Na+].[Na+]` (centres unmarked) [Compound 700DX], the “relative fluorescence on repeated scanning (photostability)” value [4] is reported as “unchanged”.
